Molecules are shown by their SMILES.

Test [1] concerns the target T1, ALDH1A2 (Homo sapiens, UniProt O94788).
T1 sequence (O94788 1-518): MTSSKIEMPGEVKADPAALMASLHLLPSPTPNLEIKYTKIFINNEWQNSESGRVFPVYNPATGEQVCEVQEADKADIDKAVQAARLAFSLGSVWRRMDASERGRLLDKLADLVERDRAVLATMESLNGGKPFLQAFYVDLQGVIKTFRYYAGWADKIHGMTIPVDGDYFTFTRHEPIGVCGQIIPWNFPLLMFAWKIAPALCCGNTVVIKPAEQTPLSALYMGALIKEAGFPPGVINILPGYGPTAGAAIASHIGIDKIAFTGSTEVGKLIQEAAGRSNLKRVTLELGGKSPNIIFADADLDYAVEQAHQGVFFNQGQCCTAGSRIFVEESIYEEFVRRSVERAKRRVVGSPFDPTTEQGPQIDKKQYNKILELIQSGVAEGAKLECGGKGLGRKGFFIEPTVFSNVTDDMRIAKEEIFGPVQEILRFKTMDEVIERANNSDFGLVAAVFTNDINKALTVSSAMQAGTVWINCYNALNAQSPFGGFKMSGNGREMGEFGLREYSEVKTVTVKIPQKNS
Description: Q-TOF mass spectrometry of enzyme modification by DEAB. It counts as binding. As to conditions: 5.0 μM ALDH1A2, 10 μM DEAB, without NAD+, 1 h.

The target in test [2] is T1, ALDH1A2. Description: Kinetics of irreversible. It counts as biochemical.
The target in test [3] is T2, ALDH4A1 (Homo sapiens, UniProt P30038).
T2 sequence (P30038 25-563): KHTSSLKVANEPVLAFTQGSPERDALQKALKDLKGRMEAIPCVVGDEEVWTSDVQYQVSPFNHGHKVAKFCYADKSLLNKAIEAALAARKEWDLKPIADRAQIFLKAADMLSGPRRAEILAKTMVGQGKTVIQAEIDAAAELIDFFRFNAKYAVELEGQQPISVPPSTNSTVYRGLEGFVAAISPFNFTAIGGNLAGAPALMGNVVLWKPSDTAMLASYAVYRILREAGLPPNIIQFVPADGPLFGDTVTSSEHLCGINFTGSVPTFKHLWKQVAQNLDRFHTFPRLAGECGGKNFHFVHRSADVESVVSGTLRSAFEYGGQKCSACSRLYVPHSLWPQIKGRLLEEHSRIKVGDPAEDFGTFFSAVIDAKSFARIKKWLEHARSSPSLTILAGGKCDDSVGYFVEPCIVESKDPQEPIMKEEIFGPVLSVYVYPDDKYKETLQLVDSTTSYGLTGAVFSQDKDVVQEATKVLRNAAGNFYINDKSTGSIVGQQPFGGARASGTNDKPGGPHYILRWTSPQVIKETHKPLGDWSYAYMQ
Description: Wavelength scans to monitor DEAB oxidation. It counts as biochemical. As to conditions: DEAB as substrate of ALDH4A1.

Test [4] has as its target T3, ALDH5A1 (Homo sapiens, UniProt P51649).
T3 sequence (P51649 48-535): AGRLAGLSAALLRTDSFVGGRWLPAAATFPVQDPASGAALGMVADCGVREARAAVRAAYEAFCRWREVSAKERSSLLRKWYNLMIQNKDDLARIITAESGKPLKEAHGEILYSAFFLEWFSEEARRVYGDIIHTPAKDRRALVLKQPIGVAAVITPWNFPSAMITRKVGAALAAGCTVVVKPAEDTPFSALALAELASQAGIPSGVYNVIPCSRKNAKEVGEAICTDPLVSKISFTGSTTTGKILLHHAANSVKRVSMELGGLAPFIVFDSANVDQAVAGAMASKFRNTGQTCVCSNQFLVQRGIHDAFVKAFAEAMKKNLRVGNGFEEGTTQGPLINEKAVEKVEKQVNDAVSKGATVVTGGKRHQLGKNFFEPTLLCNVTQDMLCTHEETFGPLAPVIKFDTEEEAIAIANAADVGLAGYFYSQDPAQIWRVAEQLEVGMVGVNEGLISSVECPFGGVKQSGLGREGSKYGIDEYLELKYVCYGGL
Description: Wavelength scans to monitor DEAB oxidation. It counts as biochemical. As to conditions: DEAB as substrate of ALDH5A1.

The target of test [5] is T4, ALDH1A3 (Homo sapiens, UniProt P47895).
T4 sequence (P47895 1-512): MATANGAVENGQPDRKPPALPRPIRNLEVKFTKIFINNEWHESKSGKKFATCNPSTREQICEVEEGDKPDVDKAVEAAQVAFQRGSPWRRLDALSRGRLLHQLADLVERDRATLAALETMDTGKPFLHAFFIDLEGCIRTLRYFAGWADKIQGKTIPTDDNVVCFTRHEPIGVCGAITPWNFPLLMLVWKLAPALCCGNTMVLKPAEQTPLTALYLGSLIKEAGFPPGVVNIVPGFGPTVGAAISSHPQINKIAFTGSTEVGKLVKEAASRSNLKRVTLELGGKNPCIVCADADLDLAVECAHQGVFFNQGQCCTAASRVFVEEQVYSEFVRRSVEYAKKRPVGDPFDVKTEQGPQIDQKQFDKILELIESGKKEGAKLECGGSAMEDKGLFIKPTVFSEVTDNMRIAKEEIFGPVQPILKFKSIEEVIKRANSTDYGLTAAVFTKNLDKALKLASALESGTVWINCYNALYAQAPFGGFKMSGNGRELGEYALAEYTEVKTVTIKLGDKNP
As to the kind of experiment: Wavelength scans to monitor DEAB oxidation. It counts as biochemical. The following applies: DEAB as substrate of ALDH1A3.

For test [6], the target named is T5, ALDH1L1 (Rattus norvegicus, UniProt P28037).
T5 sequence (P28037 417-902 limits assumed): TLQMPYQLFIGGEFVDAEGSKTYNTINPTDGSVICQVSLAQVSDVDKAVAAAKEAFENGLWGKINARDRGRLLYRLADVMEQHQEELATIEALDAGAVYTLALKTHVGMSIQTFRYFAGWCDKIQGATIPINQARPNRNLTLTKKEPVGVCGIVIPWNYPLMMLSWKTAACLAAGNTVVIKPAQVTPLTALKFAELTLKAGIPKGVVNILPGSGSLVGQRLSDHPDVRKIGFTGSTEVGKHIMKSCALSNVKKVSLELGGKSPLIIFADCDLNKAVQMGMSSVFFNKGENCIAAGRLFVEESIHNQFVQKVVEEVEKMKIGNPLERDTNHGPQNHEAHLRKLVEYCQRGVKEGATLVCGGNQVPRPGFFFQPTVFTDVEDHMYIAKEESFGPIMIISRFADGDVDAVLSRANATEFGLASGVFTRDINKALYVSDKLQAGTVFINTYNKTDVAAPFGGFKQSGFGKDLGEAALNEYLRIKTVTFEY
As to the kind of experiment: Wavelength scans to monitor DEAB oxidation. As to conditions: DEAB as substrate of ALDH1L1. It counts as biochemical.

In test [7] the target is T6, ALDH3A1 (Homo sapiens, UniProt P30838).
T6 sequence (P30838 1-453): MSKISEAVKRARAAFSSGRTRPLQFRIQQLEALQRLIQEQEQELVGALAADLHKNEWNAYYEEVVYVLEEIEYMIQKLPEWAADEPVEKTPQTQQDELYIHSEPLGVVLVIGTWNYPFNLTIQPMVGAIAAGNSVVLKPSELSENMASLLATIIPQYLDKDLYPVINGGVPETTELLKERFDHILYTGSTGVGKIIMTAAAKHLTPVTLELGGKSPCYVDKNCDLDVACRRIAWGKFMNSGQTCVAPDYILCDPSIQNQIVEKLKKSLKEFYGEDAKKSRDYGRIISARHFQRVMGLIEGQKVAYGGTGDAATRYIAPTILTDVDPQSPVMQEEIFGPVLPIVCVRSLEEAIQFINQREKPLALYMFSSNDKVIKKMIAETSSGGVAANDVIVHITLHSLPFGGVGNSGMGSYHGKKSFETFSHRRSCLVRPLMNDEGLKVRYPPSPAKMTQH
As to the kind of experiment: Enzyme kinetics with DEAB as a substrate. As to conditions: ALDH3A1 oxidation of the substrate.

Test [8] addresses T7, ALDH1B1 (Homo sapiens, UniProt P30837).
T7 sequence (P30837 18-517): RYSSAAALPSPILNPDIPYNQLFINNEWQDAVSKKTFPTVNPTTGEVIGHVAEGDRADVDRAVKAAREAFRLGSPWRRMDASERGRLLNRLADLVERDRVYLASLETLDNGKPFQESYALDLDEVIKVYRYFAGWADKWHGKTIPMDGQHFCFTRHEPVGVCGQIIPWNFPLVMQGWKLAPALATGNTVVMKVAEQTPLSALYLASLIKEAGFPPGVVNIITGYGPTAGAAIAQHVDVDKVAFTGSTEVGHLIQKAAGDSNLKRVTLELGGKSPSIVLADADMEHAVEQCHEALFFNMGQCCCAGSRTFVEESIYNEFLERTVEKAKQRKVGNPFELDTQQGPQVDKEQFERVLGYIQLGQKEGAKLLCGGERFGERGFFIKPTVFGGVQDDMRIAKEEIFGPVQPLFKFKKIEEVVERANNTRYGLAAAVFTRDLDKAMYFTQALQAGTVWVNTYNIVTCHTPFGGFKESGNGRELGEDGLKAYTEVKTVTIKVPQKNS
Description: Wavelength scans to monitor DEAB oxidation. The following applies: DEAB as substrate of ALDH1B1. It counts as biochemical.

Test [9] deals with T4, ALDH1A3. Description: DEAB inhibition and IC50 determination. Type of test: biochemical.
Test [10] addresses T2, ALDH4A1. As to the kind of experiment: DEAB inhibition and IC50 determination.
The target of test [11] is T1, ALDH1A2. As to the kind of experiment: Wavelength scans to monitor DEAB oxidation. Type of test: biochemical. As to conditions: DEAB as substrate of ALDH1A2.
For test [12], the target named is T1, ALDH1A2. As to the kind of experiment: DEAB inhibition and IC50 determination. Type of test: biochemical.
In test [13] the target is T7, ALDH1B1. As to the kind of experiment: DEAB inhibition and IC50 determination. Type of test: biochemical.
Test [14] deals with T1, ALDH1A2. As to the kind of experiment: Effect of dialysis on DEAB-induced inhibition. It counts as biochemical.
Test [15] has as its target T5, ALDH1L1. As to the kind of experiment: DEAB inhibition and IC50 determination.
Test [16] concerns the target T6, ALDH3A1. As to the kind of experiment: Wavelength scans to monitor DEAB oxidation. It counts as biochemical. The following applies: DEAB as substrate of ALDH3A1.
Test [17] concerns the target T3, ALDH5A1. Description: DEAB inhibition and IC50 determination.

Turning to `CCN(CC)c1ccc(C=O)cc1` [DEAB], the “fraction of enzyme with DEAB bound” value on ALDH1A2 [1] is recorded as “approximately one-third”. The Mode of inhibition result on ALDH1A2 [2] is given as “Covalent inhibitor”. Also, the Substrate result at ALDH4A1 [3] is recorded as “No”; at ALDH5A1 [4], “Yes (slow)”; on ALDH1A3 [5] it was “Yes (slow)”; at ALDH1L1 [6] it was “No”; at ALDH1B1 [8], “Yes (slow)”; at ALDH1A2 [11] it was “No”. Further, the Substrate entry on ALDH3A1 [16] was “Yes”. The Km at ALDH3A1 [7] worked out at 5.6 ± 0.7 µM. For the same molecule, the IC50 at ALDH1A3 [9] is 3 ± 0.3 µM; on ALDH4A1 [10] it was over 20 µM; at ALDH1A2 [12], 1.2 ± 0.1 µM; against ALDH1B1 [13], 1.2 ± 0.1 µM; against ALDH1L1 [15], over 20 µM; against ALDH5A1 [17], 13 ± 0.5 µM. In addition, the activity at 100 µM on ALDH1A2 [14] (0.5 h, pH 7.5, read-out: activity recovered after dialysis) worked out at 75%. Further, the “recovery of enzymatic activity after dialysis” value at ALDH1A2 [14] (ALDH1A2, pre-incubated with DEAB and NAD+, dialyzed 4 h) is on record as “neither the ALDH2 nor the ALDH1A2 samples regained enzymatic activity”.
